This note sets out measurements from ChEMBL document CHEMBL3351422, “Discovery of N-substituted 7-azaindoline derivatives as potent, orally available M1 and M4 muscarinic acetylcholine receptors selective agonists” (Bioorg Med Chem Lett, 2014).

The target of data set [1] is T1, Muscarinic acetylcholine receptor M4 (Homo sapiens) (UniProt P08173).
T1 sequence (whole entry): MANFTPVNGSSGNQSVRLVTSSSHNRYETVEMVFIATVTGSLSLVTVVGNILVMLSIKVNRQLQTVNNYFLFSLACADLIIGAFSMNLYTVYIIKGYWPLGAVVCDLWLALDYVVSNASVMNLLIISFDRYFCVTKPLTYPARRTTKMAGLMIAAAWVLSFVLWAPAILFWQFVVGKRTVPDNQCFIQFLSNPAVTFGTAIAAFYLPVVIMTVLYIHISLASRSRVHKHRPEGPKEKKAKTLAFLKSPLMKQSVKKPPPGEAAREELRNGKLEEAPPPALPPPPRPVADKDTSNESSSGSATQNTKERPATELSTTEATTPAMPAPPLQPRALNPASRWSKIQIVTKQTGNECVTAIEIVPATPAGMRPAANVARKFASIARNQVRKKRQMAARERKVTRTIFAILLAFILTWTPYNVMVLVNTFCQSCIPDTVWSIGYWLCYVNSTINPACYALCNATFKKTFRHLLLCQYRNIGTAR
Briefly: Agonist activity at muscarinic M4 receptor (unknown origin) at 1 uM by calcium mobilization assay. It counts as functional.

Data set [2] concerns the target T1, Muscarinic acetylcholine receptor M4 (Homo sapiens). Briefly: Agonist activity at muscarinic M4 receptor (unknown origin) at 0.3 uM by calcium mobilization assay. It counts as functional.
Data set [3] can be described thus: Clearance in rat at 0.25 mg/kg, iv and 2.5 mg/kg, po. It counts as ADME, organism-based. The settings on record: in vivo.
For data set [4], the target named is T2, Muscarinic acetylcholine receptor M5 (Homo sapiens) (UniProt P08912).
T2 sequence (whole entry): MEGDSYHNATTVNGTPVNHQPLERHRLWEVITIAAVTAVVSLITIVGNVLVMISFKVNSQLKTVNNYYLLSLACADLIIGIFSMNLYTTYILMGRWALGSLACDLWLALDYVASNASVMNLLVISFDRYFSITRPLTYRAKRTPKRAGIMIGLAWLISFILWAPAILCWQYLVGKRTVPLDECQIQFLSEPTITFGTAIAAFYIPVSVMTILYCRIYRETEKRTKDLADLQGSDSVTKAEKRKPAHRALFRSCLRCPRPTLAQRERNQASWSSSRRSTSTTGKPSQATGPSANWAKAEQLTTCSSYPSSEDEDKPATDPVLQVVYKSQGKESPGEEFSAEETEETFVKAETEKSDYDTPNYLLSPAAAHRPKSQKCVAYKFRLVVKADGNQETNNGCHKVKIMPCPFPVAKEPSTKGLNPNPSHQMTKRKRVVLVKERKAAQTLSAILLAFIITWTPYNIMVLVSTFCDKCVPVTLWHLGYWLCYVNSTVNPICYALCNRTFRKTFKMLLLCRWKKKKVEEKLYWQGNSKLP
Briefly: Agonist activity at muscarinic M5 receptor (unknown origin) at 10 uM by calcium mobilization assay. It counts as functional.

The target in data set [5] is T3, Muscarinic acetylcholine receptor M1 (Homo sapiens) (UniProt P11229).
T3 sequence (whole entry): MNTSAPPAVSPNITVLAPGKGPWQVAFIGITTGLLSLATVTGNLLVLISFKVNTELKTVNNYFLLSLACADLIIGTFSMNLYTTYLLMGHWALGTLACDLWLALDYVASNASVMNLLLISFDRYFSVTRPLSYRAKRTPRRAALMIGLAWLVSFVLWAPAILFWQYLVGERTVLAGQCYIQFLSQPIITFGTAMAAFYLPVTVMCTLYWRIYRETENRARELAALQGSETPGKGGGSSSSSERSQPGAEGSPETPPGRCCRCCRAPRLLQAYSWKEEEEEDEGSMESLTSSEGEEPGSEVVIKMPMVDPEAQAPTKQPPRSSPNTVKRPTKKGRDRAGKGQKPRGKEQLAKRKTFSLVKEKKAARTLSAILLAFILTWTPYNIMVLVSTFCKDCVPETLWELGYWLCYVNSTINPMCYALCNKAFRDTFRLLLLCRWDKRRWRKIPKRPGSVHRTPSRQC
Briefly: Agonist activity at muscarinic M1 receptor (unknown origin) at 1 uM by calcium mobilization assay. It counts as functional.

In data set [6] the target is Voltage-gated inwardly rectifying potassium channel KCNH2 (Homo sapiens, UniProt Q12809). Briefly: Inhibition of human ERG channel.
Chain of Voltage-gated inwardly rectifying potassium channel KCNH2 (Q12809 whole entry): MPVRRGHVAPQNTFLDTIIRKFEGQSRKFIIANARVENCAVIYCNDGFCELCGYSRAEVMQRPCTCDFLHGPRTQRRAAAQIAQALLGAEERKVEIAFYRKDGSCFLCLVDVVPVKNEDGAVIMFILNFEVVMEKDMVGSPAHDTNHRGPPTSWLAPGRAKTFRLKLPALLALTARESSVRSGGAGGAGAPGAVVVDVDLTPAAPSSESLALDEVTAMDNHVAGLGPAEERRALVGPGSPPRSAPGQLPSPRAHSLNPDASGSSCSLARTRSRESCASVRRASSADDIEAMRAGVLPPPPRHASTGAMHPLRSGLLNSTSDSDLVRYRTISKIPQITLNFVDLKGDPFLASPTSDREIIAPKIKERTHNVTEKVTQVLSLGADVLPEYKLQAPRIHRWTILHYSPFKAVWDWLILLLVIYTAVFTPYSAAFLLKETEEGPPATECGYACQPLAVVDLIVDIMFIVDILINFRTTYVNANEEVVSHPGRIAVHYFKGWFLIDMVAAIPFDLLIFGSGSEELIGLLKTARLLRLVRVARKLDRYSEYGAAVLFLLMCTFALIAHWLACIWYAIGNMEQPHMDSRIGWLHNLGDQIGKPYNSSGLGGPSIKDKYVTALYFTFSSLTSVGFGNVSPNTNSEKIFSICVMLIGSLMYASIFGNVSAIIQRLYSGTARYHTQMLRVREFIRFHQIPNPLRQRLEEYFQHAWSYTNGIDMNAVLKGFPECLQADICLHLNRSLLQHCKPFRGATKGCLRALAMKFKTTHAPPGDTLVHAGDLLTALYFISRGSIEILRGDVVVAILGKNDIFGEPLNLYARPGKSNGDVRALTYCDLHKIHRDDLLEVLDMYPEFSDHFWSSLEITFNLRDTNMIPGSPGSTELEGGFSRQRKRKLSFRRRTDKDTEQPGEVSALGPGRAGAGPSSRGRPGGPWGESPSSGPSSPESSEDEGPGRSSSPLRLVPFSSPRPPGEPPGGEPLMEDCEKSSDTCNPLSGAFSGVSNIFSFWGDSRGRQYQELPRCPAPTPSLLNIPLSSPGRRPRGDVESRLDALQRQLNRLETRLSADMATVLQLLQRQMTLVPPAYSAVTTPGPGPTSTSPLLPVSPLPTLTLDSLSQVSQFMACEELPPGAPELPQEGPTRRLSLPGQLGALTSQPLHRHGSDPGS
Data set [7] has as its target T4, Muscarinic acetylcholine receptor M2 (Homo sapiens) (UniProt P08172).
T4 sequence (whole entry): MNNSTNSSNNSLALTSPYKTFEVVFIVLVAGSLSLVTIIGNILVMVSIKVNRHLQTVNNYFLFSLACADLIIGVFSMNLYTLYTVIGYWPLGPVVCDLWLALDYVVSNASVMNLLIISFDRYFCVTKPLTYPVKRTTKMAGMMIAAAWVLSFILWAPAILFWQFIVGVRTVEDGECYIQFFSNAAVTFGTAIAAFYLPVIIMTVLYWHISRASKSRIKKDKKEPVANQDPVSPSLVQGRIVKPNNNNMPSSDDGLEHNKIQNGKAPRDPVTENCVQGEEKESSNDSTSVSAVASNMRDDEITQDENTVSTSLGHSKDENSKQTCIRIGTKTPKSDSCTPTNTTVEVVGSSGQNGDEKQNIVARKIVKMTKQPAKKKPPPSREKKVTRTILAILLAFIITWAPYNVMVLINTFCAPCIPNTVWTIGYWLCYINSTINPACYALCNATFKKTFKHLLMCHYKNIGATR
Briefly: Agonist activity at muscarinic M2 receptor (unknown origin) at 1 uM by calcium mobilization assay. It counts as functional.

Data set [8] addresses Muscarinic acetylcholine receptor M3 (Homo sapiens) (UniProt P20309). Briefly: Agonist activity at muscarinic M3 receptor (unknown origin) at 1 uM by calcium mobilization assay. It counts as functional.
Data set [9] has the same target. Briefly: Agonist activity at muscarinic M3 receptor (unknown origin) at 0.3 uM by calcium mobilization assay. It counts as functional.
Data set [10] addresses T4, Muscarinic acetylcholine receptor M2 (Homo sapiens). Briefly: Agonist activity at muscarinic M2 receptor (unknown origin) at 0.3 uM by calcium mobilization assay. It counts as functional.
Data set [11] is described as follows: Lipophilicity, log P of the compound. It counts as physicochemical. Particulars: octanol/water.
The target in data set [12] is T3, Muscarinic acetylcholine receptor M1 (Homo sapiens). Briefly: Agonist activity at muscarinic M1 receptor (unknown origin) at 0.3 uM by calcium mobilization assay. It counts as functional.
Data set [13] is described as follows: Oral bioavailability in rat at 2.5 mg/kg. It counts as ADME, organism-based. The settings on record: in vivo.

Chain of Muscarinic acetylcholine receptor M3 (Homo sapiens) (P20309 whole entry, looked up): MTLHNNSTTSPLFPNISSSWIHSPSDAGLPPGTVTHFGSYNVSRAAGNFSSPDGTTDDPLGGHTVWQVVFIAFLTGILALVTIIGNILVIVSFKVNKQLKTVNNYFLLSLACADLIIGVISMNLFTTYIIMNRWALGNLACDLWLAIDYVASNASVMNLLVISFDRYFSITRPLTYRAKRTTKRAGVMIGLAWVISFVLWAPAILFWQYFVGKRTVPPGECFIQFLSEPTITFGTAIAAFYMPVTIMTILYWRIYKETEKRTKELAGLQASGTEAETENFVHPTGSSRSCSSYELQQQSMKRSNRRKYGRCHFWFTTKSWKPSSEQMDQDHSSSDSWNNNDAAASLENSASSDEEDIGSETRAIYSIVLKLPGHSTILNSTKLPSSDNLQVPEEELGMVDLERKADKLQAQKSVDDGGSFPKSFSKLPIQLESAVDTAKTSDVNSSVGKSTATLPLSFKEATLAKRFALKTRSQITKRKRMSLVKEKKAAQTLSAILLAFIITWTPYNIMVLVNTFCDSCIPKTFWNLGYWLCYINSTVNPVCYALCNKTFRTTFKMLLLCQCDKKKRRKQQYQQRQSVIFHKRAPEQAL

Regarding `CCOC(=O)N1CCC(CN2CCC3(CC2)CN(C(=O)OC)c2ncccc23)CC1`, the Activity in data set [1] came out at 7%.
On to `CCOC(=O)N1CCC(CN2CCC3(CC2)CN(C(=O)N2CCC2)c2ncccc23)CC1`, for which the Activity in [2] came out at 29%.
On to `CCOC(=O)N1CCC(CN2CCC3(CC2)OC(=O)Nc2ncccc23)CC1`, for which, in data set [3], the clearance is 17.5 mL/min/kg.
The same measure, in the same setting: under `CCOC(=O)N1CCC(CN2CCC3(CC2)OC(=O)N(C)c2ncccc23)CC1` stands 71.6 mL/min/kg.
For the compound `CCNC(=O)N1CC2(CCN(CC3CCN(C(=O)OCC)CC3)CC2)c2cccnc21`, the Activity was determined as 77% in data set [1]; 11% in data set [4]; 55% in data set [5]; 13% in data set [7]; 5% in [8]. The compound also yielded a 50% inhibitory concentration (IC50) in data set [6] of 230 nM.
Turning to `CCOC(=O)N1CCC(CN2CCC3(CC2)CN(CC)c2ncccc23)CC1`, the Activity came out at 58% in [1]; 17% in [4]; 34% in data set [5]; 14% in data set [7]; 6% in [8].
Regarding `CCOC(=O)N1CCC(CN2CCC3(CC2)CN(C(=O)N2CCCC2)c2ncccc23)CC1`, the Activity in [2] turned out to be 10%.
With `CCOC(=O)N1CCC(CN2CCC3(CC2)CN(C(N)=O)c2ncccc23)CC1`, the Activity in data set [4] came to 8%; in [2], 103%; in data set [9], 11%; in data set [10], 17%; in data set [12], 99%. Further, in [11], the logP was 2.
In the case of `CCOC(=O)N1CCC(CN2CCC3(CC2)CN(C(=O)N(CC)CC)c2ncccc23)CC1`, the Activity in data set [1] was 132%; in data set [4] it was 9%; in [5], 52%; in [7], 23%; in data set [8] it was 4%. In addition, the 50% inhibitory concentration (IC50) in [6] was found to be 2540 nM.
Turning to `CCOC(=O)N1CCC(CN2CCC3(CC2)CN(S(C)(=O)=O)c2ncccc23)CC1`, the Activity in data set [4] is 3%; in [2] it was 88%; in [9] it was 7%; in data set [10] it was 12%; in data set [12] it was 20%.
As to `CCOC(=O)N1CCC(CN2CCC3(CC2)CN(C(=O)NC)c2ncccc23)CC1`, the Activity is 17% in data set [4]; 98% in data set [2]; 8% in data set [9]; 7% in data set [10]; 74% in [12]. Further, inhibition in data set [6] was half-maximal at 300 nM (IC50). The same compound yielded a logP in [11] of 2.5.
As for `CCOC(=O)N1CCC(CN2CCC3(CC2)CC(=O)N(CC)c2ncccc23)CC1`, the Activity in [1] was 134%; in data set [4], 3%; in data set [5], 91%; in [7], 20%; in data set [8] it was 2%. This compound also gave a clearance in [3] of 49.3 mL/min/kg. The compound further showed a bioavailability in data set [13] of 2.6%.
